How the values were obtained:
CYPIR (Cyperus iria) = test: Flooded paddy, preemergence weed control; format: in vivo; settings: rate 0.1250 kg/ha, rated 3-4 weeks after treatment, 0-9 rating scale
Procedure: (§1) Results of herbicide evaluation are expressed on a rating scale (0-9). The scale is based upon a visual observation of plant stand, vigor, malformation, size, chlorosis and overall plant appearance as compared with a control.
(§2) Preemergence herbicidal activity under flooded paddy conditions is determined as follows: plant seeds or propagating organs are planted in the top 0.5 cm of silt loam soil in 32 oz. plastic containers with a diameter of 10.5 cm and no drainage holes. Water is added to these containers and maintained at 1.5 to 3 cm above the soil surface for the duration of the experiment. […] The treated containers are placed on greenhouse benches and cared for in accordance with conventional greenhouse procedures.

ORYSAT (Rice, Tebonnet) [1] = test: Postemergence herbicidal evaluation; format: in vivo, Oryza sativa, (L.) Tebonnet; settings: rate 0.1250 kg/ha
Procedure: (§3) In the tests, seedling plants are grown in jiffy flats for about two weeks. […] After spraying, the plants are placed on greenhouse benches and are cared for in accordance with conventional greenhouse procedures. From four to five weeks after treatment, the seedling plants are examined and rated according to the rating system set forth below. Where more than one test is involved for a given compound, the data are averaged.
as §1

[2] = system: CASOB (Cassia obtusifolia); test: Preemergence herbicidal evaluation; format: in vivo, L.; settings: Rate 0.2500 kg/ha; preemergence; rated 4-5 weeks after treatment
Excerpt: as §1
(§4) The preemergence herbicidal activity of the test compounds of the present invention is exemplified by the following tests in which the seeds of a variety of monocotyledonous and dicotyledonous plants are separately mixed with potting soil and planted on top of approximately one inch of soil in separate pint cups. […] The treated cups are then placed on greenhouse benches, watered and cared for in accordance with conventional greenhouse procedures. From four to five weeks after treatment, the tests are terminated and each cup is examined and rated according to the rating system provided in Example 87. The plant species used and the compounds evaluated are the same as those shown in Example 87.

[3] = system: AMBEL (Ambrosia artemisifolia); test: Preemergence herbicidal evaluation; format: in vivo, L.; settings: Rate 0.2500 kg/ha; preemergence; rated 4-5 weeks after treatment
Excerpt: as §1, §4

[4] = system: CHEAL (Chenopodium album); test: Preemergence herbicidal evaluation; format: in vivo, L.; settings: Rate 0.2500 kg/ha; preemergence; rated 4-5 weeks after treatment
Excerpt: as §1, §4

ORYSAT (Rice, Tebonnet) [5] = test: Flooded paddy, post-transplant rice tolerance; format: in vivo, Oryza sativa, (L.) Tebonnet; settings: flooded paddy, post-transplant rice; rate 0.1250 kg/ha; rated 3-4 weeks after treatment; 0-9 rating scale
Procedure: as §1
The tolerance of transplanted rice to post-transplanted herbicide application is determined as follows: two ten-day-old rice seedlings (cv. Tebonnet) are transplanted into silt loam soil in 32 oz. plastic containers with a diameter of 10.5 cm and no drainage holes. After transplanting, the containers are flooded and the water level is maintained at 1.5 to 3 cm above the soil surface. […] The treated containers are placed on greenhouse benches, watered such that the water level is maintained as stated above, and cared for in accordance with conventional greenhouse procedures.

ORYSAT (Rice, Tebonnet) [6] = test: Preemergence herbicidal evaluation; format: in vivo, Oryza sativa, (L.) Tebonnet; settings: Rate 0.2500 kg/ha; preemergence; rated 4-5 weeks after treatment
Excerpt: as §1, §4

[7] = system: SAGPY (Sagittaria pygmaea); test: Flooded paddy, preemergence weed control; format: in vivo, L.; settings: rate 0.1250 kg/ha, rated 3-4 weeks after treatment, 0-9 rating scale
Procedure: as §1, §2

[8] = system: TRZAWR (Wheat, Winter, cv Riband); test: Postemergence herbicidal evaluation; format: in vivo, Triticum aestivum; settings: rate 0.1250 kg/ha
Procedure: as §3, §1

SETVI (Setaria viridis) [9] = test: Postemergence herbicidal evaluation; format: in vivo, (L.) Beau; settings: rate 0.1250 kg/ha
Procedure: In the tests, seedling plants are grown in jiffy flats for about two weeks. The test compounds are dispersed in 50/50 acetone/water mixtures containing 0.5% TWEEN® 20, a polyoxyethylene sorbitan monolaurate surfactant of Atlas Chemical Industries, in sufficient quantities to provide the equivalent of about 0.0040 kg to 1.000 kg per hectare of active compound when applied to the plants through a spray nozzle operating at 40 psi for a predetermined time. After spraying, the plants are placed on greenhouse benches and are cared for in accordance with conventional greenhouse procedures. From four to five weeks after treatment, the seedling plants are examined and rated according to the rating system set forth below. Where more than one test is involved for a given compound, the data are averaged.
as §1

[10] = system: GLXMAW (Soybean, Williams); test: Preemergence herbicidal evaluation; format: in vivo, Glycine max, (L.) Merr. cv Williams; settings: Rate 0.2500 kg/ha; preemergence; rated 4-5 weeks after treatment
Excerpt: as §1, §4

[11] = system: ECHCG (Echinochloa crus-galli); test: Preemergence herbicidal evaluation; format: in vivo, (L.) Beau; settings: Rate 0.2500 kg/ha; preemergence; rated 4-5 weeks after treatment
Excerpt: as §1, §4

SETVI (Setaria viridis) [12] = test: Preemergence herbicidal evaluation; format: in vivo, (L.) Beau; settings: Rate 0.2500 kg/ha; preemergence; rated 4-5 weeks after treatment
Excerpt: as §1, §4

[13] = system: CYPSE (Cyperus serotinus); test: Flooded paddy, preemergence weed control; format: in vivo, Rottb.; settings: rate 0.1250 kg/ha, rated 3-4 weeks after treatment, 0-9 rating scale
Procedure: as §1
Preemergence herbicidal activity under flooded paddy conditions is determined as follows: plant seeds or propagating organs are planted in the top 0.5 cm of silt loam soil in 32 oz. plastic containers with a diameter of 10.5 cm and no drainage holes. Water is added to these containers and maintained at 1.5 to 3 cm above the soil surface for the duration of the experiment. The test compounds are applied as aqueous/acetone mixtures 50/50 v/v pipetted directly into the flood water to give the equivalent of about 0.0080 to 0.1250 kg/ha of active ingredient. The treated containers are placed on greenhouse benches and cared for in accordance with conventional greenhouse procedures. Three to four weeks after treatment, the test is terminated and each container is examined and herbicidal effect rated according to the rating system provided in Example 87.

[14] = system: ABUTH (Abutilon theophrasti); test: Preemergence herbicidal evaluation; format: in vivo, Medic.; settings: Rate 0.2500 kg/ha; preemergence; rated 4-5 weeks after treatment
Excerpt: as §1, §4

ZEAMX (Corn, Field) [15] = test: Postemergence herbicidal evaluation; format: in vivo, Zea mays, L.; settings: rate 0.1250 kg/ha
Procedure: as §3, §1

[16] = system: MOOVA (Monochoria vaginalis); test: Flooded paddy, preemergence weed control; format: in vivo, Presl.; settings: rate 0.1250 kg/ha, rated 3-4 weeks after treatment, 0-9 rating scale
Procedure: as §1, §2

[17] = system: ABUTH (Abutilon theophrasti); test: Postemergence herbicidal evaluation; format: in vivo, Medic.; settings: rate 0.1250 kg/ha
Procedure: as §3, §1

GALAP (Galium aparine) = test: Postemergence herbicidal evaluation; format: in vivo; settings: rate 0.1250 kg/ha
Procedure: as §3, §1

[18] = system: IPOHE (Ipomoea hederacea); test: Preemergence herbicidal evaluation; format: in vivo, (L.) Jacq.; settings: Rate 0.2500 kg/ha; preemergence; rated 4-5 weeks after treatment
Excerpt: as §1, §4

[19] = system: CASOB (Cassia obtusifolia); test: Postemergence herbicidal evaluation; format: in vivo, L.; settings: rate 0.1250 kg/ha
Procedure: as §3, §1

[20] = system: AMBEL (Ambrosia artemisifolia); test: Postemergence herbicidal evaluation; format: in vivo, L.; settings: rate 0.1250 kg/ha
Procedure: as §3, §1

[21] = system: CHEAL (Chenopodium album); test: Postemergence herbicidal evaluation; format: in vivo, L.; settings: rate 0.1250 kg/ha
Procedure: as §3, §1

[22] = system: GLXMAW (Soybean, Williams); test: Postemergence herbicidal evaluation; format: in vivo, Glycine max, (L.) Merr. cv Williams; settings: rate 0.1250 kg/ha
Procedure: as §3, §1

ZEAMX (Corn, Field) [23] = test: Preemergence herbicidal evaluation; format: in vivo, Zea mays, L.; settings: Rate 0.2500 kg/ha; preemergence; rated 4-5 weeks after treatment
Excerpt: as §1, §4

[24] = system: ECHCG (Echinochloa crus-galli); test: Postemergence herbicidal evaluation; format: in vivo, (L.) Beau; settings: rate 0.1250 kg/ha
Procedure: as §3, §1

[25] = system: TRZAWR (Wheat, Winter, cv Riband); test: Preemergence herbicidal evaluation; format: in vivo, Triticum aestivum; settings: Rate 0.2500 kg/ha; preemergence; rated 4-5 weeks after treatment
Excerpt: as §1, §4

[26] = system: IPOHE (Ipomoea hederacea); test: Postemergence herbicidal evaluation; format: in vivo, (L.) Jacq.; settings: rate 0.1250 kg/ha
Procedure: as §3, §1

[27] = system: ECHORC (Echinochloa oryzoides); test: Flooded paddy, preemergence weed control; format: in vivo, Echinochloa oryzoides (Ard.) Fritsch.; settings: rate 0.1250 kg/ha, rated 3-4 weeks after treatment, 0-9 rating scale
Procedure: as §1, §2

Cn1cccc1-c1nsc2ccc(-n3c(=O)cc(C(F)(F)F)n(C)c3=O)cc12 [Compound 6, 1-methyl-3-[3-(1-methylpyrrol-2-yl)-1,2-benzisothiazol-5-yl]-6-(trifluoromethyl)uracil]
herbicidal rating, CYPIR (CYPIR (Cyperus iria)): 9.0
Postemergence herbicidal rating, ORYSAT (ORYSAT (Rice, Tebonnet) [1]): 3.0
CASOB preemergence herbicidal rating [2]: 0.0
AMBEL preemergence herbicidal rating [3]: 9.0
CHEAL preemergence herbicidal rating [4]: 9.0
herbicidal rating, ORYSAT (rice tolerance) (ORYSAT (Rice, Tebonnet) [5]): 3.0
ORYSAT preemergence herbicidal rating (ORYSAT (Rice, Tebonnet) [6]): 2.0
herbicidal rating, SAGPY [7]: 4.0
Postemergence herbicidal rating, TRZAWR [8]: 4.5
Postemergence herbicidal rating, SETVI (SETVI (Setaria viridis) [9]): 0.0
GLXMAW preemergence herbicidal rating [10]: 4.0
ECHCG preemergence herbicidal rating [11]: 9.0
SETVI preemergence herbicidal rating (SETVI (Setaria viridis) [12]): 8.0
herbicidal rating, CYPSE [13]: 9.0
ABUTH preemergence herbicidal rating [14]: 9.0
Postemergence herbicidal rating, ZEAMX (ZEAMX (Corn, Field) [15]): 5.0
herbicidal rating, MOOVA [16]: 9.0
Postemergence herbicidal rating, ABUTH [17]: 9.0
Postemergence herbicidal rating, GALAP (GALAP (Galium aparine)): 4.0
IPOHE preemergence herbicidal rating [18]: 9.0
Postemergence herbicidal rating, CASOB [19]: 0.0
Postemergence herbicidal rating, AMBEL [20]: 3.0
Postemergence herbicidal rating, CHEAL [21]: 4.0
Postemergence herbicidal rating, GLXMAW [22]: 7.5
ZEAMX preemergence herbicidal rating (ZEAMX (Corn, Field) [23]): 5.0
Postemergence herbicidal rating, ECHCG [24]: 0.0
TRZAWR preemergence herbicidal rating [25]: 2.0
Postemergence herbicidal rating, IPOHE [26]: 9.0
herbicidal rating, ECHORC [27]: 2.0
